# Reference: US9073830B2 (Hyundai Pharm Co., Ltd., priority 2011, dated 2015)
# Tests used:
# glucocorticoid receptor = target: T1, glucocorticoid receptor (Homo sapiens, UniProt P04150); assay: Competitive binding of glucocorticoid receptor (LanthaScreen TR-FRET); details: final concentration 10 uM
# T1 construct: 4× GR-LBD up to 4 nM, and 4× Tb anti-GST Antibody up to 8 nM; purchased Invitrogen PV6040
# T1 sequence (P04150 524-758 limits assumed): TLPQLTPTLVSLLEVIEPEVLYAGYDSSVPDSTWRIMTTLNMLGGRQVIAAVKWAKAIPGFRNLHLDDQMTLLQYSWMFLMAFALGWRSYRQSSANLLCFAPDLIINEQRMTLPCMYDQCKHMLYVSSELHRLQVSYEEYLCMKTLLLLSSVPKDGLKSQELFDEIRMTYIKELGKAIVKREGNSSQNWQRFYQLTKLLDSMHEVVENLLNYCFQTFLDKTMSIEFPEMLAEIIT
# Experimental: In order to confirm the selective inhibitory ability of 11β-HSD1 inhibitor, competitive binding between 11β-HSD1 inhibitor and glucocorticoid ligand was tested by using LanthaScreen TR-FRET Glucocorticoid Receptor Competitive Binding Assay (Invitrogen, PV6040). The test material was dissolved in DMSO (Sigma, 276855) up to a 100× concentration of its final concentration (10 uM), and then Complete Nuclear Receptor Buffer F (1× stabilizing peptide, 5 mM DTT, Nuclear Receptor Buffer F) was used to dilute the test material up to a concentration of 2×, 4× Fluormone™ GS1 Green up to 20 nM, 4× GR-LBD up to 4 nM, and 4× Tb anti-GST Antibody up to 8 nM.
# In order to obtain 60 μl of a final product through a reaction, on a 96-well plate, 2× test material 30 μl, 4× Fluormone™ GS1 Green 15 μl, and 4× GR-LBD/Tb anti-GST Antibody 15 μl were mixed, and reacted for 1 hour. In a positive control group, instead of the test material, Dexamethasone (Sigma, D1756), known as a ligand for glucocorticoid receptor, was used, and in a maximum active control group, DMSO was used, instead of the test material. In a negative control group, instead of the test material, DMSO was used, instead of Fluormone™ GS1 Green, Complete Nuclear Receptor Buffer F was used. On a 384-well white plate, 20 μl each was plated. By using Time-Resolved program in Flexstation3, a fluorescence value was read after excitation ([…]), emission (515 nM/486 nM), Delay time (100 μs), and Integration time (1500 μs) were programmed. By using the obtained value, a value of 515 nM/486 nM was calculated, from which the value in the negative control group was subtracted. The degree of binding of the test material to glucocorticoid receptor of was calculated by the active value of the test material with respect to the active value (100%) in the maximum active control group.
# mouse 11β-HSD1 = target: T2, mouse 11β-HSD1 (Mus musculus, UniProt P50172); assay: Enzyme activity analysis on mouse 11β-HSD1 (HTRF cortisol, liver microsomes); type: biochemical; details: second value of cell
# T2 construct: 100 ug/ml human/mouse liver microsomes; from tissue; host or cells: mouse liver microsomes
# T2 sequence (P50172 whole entry): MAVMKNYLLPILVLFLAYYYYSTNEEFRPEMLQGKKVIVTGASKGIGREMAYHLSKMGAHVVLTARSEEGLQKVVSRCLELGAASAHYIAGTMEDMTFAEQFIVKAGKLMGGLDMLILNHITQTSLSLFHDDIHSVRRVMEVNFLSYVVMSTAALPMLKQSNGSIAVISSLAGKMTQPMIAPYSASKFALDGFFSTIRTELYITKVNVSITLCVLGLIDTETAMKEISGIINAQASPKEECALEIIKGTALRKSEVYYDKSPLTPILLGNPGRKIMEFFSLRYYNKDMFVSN
# Summary of the method: (§1)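 Cortisol generated by mouse or human liver microsome 11β-HSD1 during 2 h at 37° C., measured by HTRF competition (cryptate anti-cortisol antibody, d2-cortisol, 2 h room temperature) against a cortisol standard curve. IC50 from percent inhibition versus no-compound control.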
# human 11β-HSD1 = target: T3, human 11β-HSD1 (Homo sapiens, UniProt P28845); assay: Enzyme activity analysis on human 11β-HSD1 (HTRF cortisol, liver microsomes); type: biochemical; details: first value of cell
# T3 construct: 100 ug/ml human/mouse liver microsomes; from tissue; host or cells: human liver microsomes
# T3 sequence (P28845 whole entry): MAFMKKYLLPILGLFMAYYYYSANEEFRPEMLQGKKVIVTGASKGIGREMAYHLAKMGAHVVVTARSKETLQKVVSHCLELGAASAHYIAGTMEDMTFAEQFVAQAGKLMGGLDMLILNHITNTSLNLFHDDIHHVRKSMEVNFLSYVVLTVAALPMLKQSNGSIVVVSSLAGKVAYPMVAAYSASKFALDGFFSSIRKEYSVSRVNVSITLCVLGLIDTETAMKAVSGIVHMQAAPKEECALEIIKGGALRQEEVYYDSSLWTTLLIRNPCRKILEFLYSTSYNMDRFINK
# Summary of the method: as §1
Structure (SMILES),binding to glucocorticoid receptor (glucocorticoid receptor),IC50 (mouse 11β-HSD1) [µM],IC50 (human 11β-HSD1) [µM]
"CC(C)(NS(=O)(=O)c1ccccc1Br)C(=O)NC1C2CC3CC1CC(C(N)=O)(C3)C2 (centres unmarked) [compound 84, N-4-(2-(2-bromophenylsulfonamido)-2-methylpropanamido)adamantane-1-carboxyamide]",did not bind to glucocorticoid receptor,0.008,0.011
"Cc1ccccc1S(=O)(=O)NC(C)(C)C(=O)NC1C2CC3CC1CC(C(N)=O)(C3)C2 (centres unmarked) [compound 104, N-4-(2-(2-methylphenylsulfonamido)-2-methylpropanamido)adamantane-1-carboxyamide]",did not bind to glucocorticoid receptor,0.046,0.014
"CC(C)(NS(=O)(=O)c1ccccc1Cl)C(=O)NC1C2CC3CC1CC(C(N)=O)(C3)C2 (centres unmarked) [compound 83, N-4-(2-(2-chlorophenylsulfonamido)-2-methylpropanamido)adamantane-1-carboxyamide]",did not bind to glucocorticoid receptor,0.018,0.009
"CC(C)(NS(=O)(=O)c1ccccc1[N+](=O)[O-])C(=O)NC1C2CC3CC(C2)CC1C3 (centres unmarked) [compound 43, N-(adamantane-2-yl)-2-methyl-2-(2-nitrophenylsulfonamido)propanamide]",did not bind to glucocorticoid receptor,0.085,0.016
"CC(C)(NS(=O)(=O)c1cccc(Cl)c1Cl)C(=O)NC1C2CC3CC1CC(C(N)=O)(C3)C2 (centres unmarked) [compound 87, N-4-(2-(2,3-dichlorophenylsulfonamido)-2-methylpropanamido)adamantane-1-carboxyamide]",did not bind to glucocorticoid receptor,0.007,0.005
"CC(C)(NS(=O)(=O)c1ccccc1F)C(=O)NC1C2CC3CC1CC(C(N)=O)(C3)C2 (centres unmarked) [compound 85, N-4-(2-(2-fluorophenylsulfonamido)-2-methylpropanamido)adamantane-1-carboxyamide]",did not bind to glucocorticoid receptor,,0.039
"CC(C)(NS(=O)(=O)c1c(F)cccc1F)C(=O)NC1C2CC3CC1CC(C(N)=O)(C3)C2 (centres unmarked) [compound 89, N-4-(2-(2,6-difluorophenylsulfonamido)-2-methylpropanamido)adamantane-1-carboxyamide]",did not bind to glucocorticoid receptor,,
"CC(C)(NS(=O)(=O)c1ccccc1OC(F)(F)F)C(=O)NC1C2CC3CC1CC(C(N)=O)(C3)C2 (centres unmarked) [compound 90, N-4-(2-(2-trifluoromethoxyphenylsulfonamido)-2-methylpropanamido)adamantane-1-carboxyamide]",did not bind to glucocorticoid receptor,0.03,0.017
"Cc1c(Cl)cccc1S(=O)(=O)NC(C)(C)C(=O)NC1C2CC3CC1CC(C(N)=O)(C3)C2 (centres unmarked) [compound 97, N-4-(2-(2-methyl-3-chlorophenylsulfonamido)-2-methylpropanamido)adamantane-1-carboxyamide]",did not bind to glucocorticoid receptor,0.01,0.005
"CC(C)(NS(=O)(=O)c1cc(Cl)cc(Cl)c1)C(=O)NC1C2CC3CC(C2)CC1C3 (centres unmarked) [compound 26, N-(adamantane-2-yl)-2-methyl-2-(3,5-dichlorophenylsulfonamido)propanamide]",,> 2.5,1.27
